The values that follow come from patent publication US9499553B2 (CHUGAI SEIYAKU KABUSHIKI KAISHA, priority 2013, dated 2016).

Format in all cases: cell-based
One test addresses T1, human PiT-1 (Homo sapiens, UniProt Q8WUM9).
T1 construct: expressed in transfected cells; host or cells: CHO cells
T1 sequence (Q8WUM9 1-679): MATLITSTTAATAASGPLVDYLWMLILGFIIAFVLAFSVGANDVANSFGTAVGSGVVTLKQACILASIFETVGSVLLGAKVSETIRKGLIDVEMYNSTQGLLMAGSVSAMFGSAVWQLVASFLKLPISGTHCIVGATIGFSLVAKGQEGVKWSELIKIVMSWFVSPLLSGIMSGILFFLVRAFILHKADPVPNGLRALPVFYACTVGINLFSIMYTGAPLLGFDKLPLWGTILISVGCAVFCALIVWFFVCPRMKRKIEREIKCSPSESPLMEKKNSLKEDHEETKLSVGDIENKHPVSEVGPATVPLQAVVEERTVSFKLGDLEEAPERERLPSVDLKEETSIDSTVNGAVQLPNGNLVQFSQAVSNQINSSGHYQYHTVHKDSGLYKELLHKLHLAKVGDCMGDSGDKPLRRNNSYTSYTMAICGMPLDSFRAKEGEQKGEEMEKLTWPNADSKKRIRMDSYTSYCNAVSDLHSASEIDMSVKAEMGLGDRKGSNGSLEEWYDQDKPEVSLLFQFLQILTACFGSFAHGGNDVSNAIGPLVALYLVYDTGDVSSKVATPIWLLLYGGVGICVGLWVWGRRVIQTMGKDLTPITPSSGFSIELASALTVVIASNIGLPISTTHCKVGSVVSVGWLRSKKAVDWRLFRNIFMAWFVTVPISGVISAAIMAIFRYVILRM
Description: Inhibitory effect on 33PO4 uptake into human PiT-1-expressing CHO cells. Particulars: compound 0.24, 1.2, 6 or 30 μM, pH 6.5, read-out: IC50 against 33PO4 uptake into human PiT-1-expressing cells. As to the method: Test Example 3: Inhibitory Effect on ^33PO4 Uptake into Human PiT-1-Expressing Cell
(§1) CHO cells were transfected with human PiT-1 expression plasmids or empty vectors to prepare human PiT-1-expressing cells and empty vector-expressing cells. The human PiT-1-expressing cells or the empty vector-expressing cells were inoculated to a 96-well plate and incubated overnight in a CO2 incubator. […] After a given time, a 1/20 volume of buffer A containing ^33PO4 was added thereto and reacted at room temperature. After washing with ice-cold buffer A, a liquid scintillator was added to each reaction mixture, and the amount of ^33PO4 uptake was measured using TopCount. The rate of inhibition was determined according to the following expression: Rate (%) of inhibition=(1−(Amount of ^33PO4 uptake in the compound-supplemented well containing the human PiT-1-expressing cells−Amount of ^33PO4 uptake in the compound-supplemented well containing the empty vector-expressing cells)/(Amount of ^33PO4 uptake in the DMSO-supplemented well containing the human PiT-1-expressing cells −Amount of ^33PO4 uptake in the DMSO-supplemented well containing the empty vector-expressing cells))×100

The next test deals with T2, human NaPi-IIb (Homo sapiens, UniProt O95436).
T2 construct: expressed in transfected cells
T2 sequence (O95436 1-690): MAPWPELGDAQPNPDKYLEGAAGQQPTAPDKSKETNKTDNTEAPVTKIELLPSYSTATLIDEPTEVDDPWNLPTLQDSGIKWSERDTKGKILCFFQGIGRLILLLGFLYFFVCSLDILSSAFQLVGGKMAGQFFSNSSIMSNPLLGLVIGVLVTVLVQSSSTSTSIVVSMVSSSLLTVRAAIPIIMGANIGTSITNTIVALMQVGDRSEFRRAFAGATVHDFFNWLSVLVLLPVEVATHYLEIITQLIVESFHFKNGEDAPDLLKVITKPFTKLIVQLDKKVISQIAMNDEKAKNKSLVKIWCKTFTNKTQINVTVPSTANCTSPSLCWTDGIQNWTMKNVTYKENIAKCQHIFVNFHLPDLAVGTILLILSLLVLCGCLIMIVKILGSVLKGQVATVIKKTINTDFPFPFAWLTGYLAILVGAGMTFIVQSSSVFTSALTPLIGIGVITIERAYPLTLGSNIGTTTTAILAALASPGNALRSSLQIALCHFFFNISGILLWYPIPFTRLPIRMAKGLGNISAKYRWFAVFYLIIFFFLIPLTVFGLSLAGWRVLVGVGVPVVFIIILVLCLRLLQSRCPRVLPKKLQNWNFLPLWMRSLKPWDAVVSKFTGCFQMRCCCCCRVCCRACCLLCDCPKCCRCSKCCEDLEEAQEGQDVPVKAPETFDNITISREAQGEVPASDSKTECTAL
Description: Inhibitory effect on 33PO4 uptake into human NaPi-IIb-expressing CHO cells. The method in brief:
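Uptake of ³³PO4 was measured by scintillation counting after ice-cold buffer A washes. Cells were CHO stably expressing human NaPi-IIb, seeded overnight, and exposed to ³³PO4 in buffer A at room temperature.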

A further test concerns the target T3, human PiT-2 (Homo sapiens, UniProt Q08357).
T3 construct: expressed in transfected cells; host or cells: CHO cells
T3 sequence (Q08357 1-652): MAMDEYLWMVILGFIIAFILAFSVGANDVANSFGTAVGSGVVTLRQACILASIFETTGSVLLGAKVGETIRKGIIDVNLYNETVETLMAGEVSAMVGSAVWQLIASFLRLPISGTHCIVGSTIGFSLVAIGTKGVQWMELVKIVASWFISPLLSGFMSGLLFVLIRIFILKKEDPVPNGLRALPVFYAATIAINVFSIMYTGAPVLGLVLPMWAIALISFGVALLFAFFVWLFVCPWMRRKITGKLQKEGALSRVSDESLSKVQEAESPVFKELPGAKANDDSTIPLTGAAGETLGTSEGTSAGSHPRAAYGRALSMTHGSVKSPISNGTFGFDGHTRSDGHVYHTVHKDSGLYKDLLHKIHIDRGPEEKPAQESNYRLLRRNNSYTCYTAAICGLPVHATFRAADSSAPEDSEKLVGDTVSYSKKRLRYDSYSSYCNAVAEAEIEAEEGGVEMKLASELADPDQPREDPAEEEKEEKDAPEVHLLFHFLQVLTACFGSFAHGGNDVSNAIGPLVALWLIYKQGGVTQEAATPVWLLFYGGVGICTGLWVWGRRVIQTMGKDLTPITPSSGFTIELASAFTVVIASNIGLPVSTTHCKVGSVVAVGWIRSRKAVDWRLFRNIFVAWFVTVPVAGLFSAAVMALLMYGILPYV
Description: Inhibitory effect on 33PO4 uptake into human PiT-2-expressing CHO cells. The note with it: pH 6.5, read-out: IC50 against 33PO4 uptake into human PiT-2-expressing cells. As to the method: Test Example 4: Inhibitory Effect on ^33PO4 Uptake into Human PiT-2-Expressing Cell
as §1, with “PiT-2” for “PiT-1”, “PiT-2-expressing” for “PiT-1-expressing”

[1] abbreviates: read-out: IC50 against 33PO4 uptake into human NaPi-IIb-expressing cells.

Counter-ions that a name gives are not always drawn. Like-named read-outs stand apart in the source and are kept apart here.

Usually IC50 stands for the concentration that gives 50% inhibition. As to `CN(C[C@H](O)[C@@H](O)[C@H](O)[C@H](O)CO)C(=O)CCCOc1ccc(CN2C(=O)C(C(=O)Nc3ccc(C(F)(F)F)cc3-c3cc(C(F)(F)F)ncn3)=C(O)C3(CCCC3)N2C)c(F)c1F` [Example 418, 7-[[2,3-Difluoro-4-[4-[methyl-[(2S,3R,4R,5R)-2,3,4,5,6-penta-hydroxyhexyl]amino]-4-oxobutoxy]phenyl]methyl]-10-hydroxy-6-methyl-8-oxo-N-[4-(trifluoromethyl)-2-[6-(trifluoromethyl)pyrimidin-4-yl]phenyl]-6,7-diazaspiro[4.5]dec-9-ene-9-carboxamide], the IC50 on human PiT-1 was found to be 4.1 µM; on human NaPi-IIb (setting [1]), 10.9 µM; at human PiT-2 it was 4.6 µM.
`C[C@]12CCCN1N(Cc1ccc(C#CCN3CCOCC3)c(F)c1F)C(=O)C(C(=O)Nc1ccc(C(F)(F)F)cc1-c1ccc(C(F)(F)F)nc1)=C2O` [Example 140, (4aR)-1-[[2,3-Difluoro-4-(3-morpholin-4-ylprop-1-ynyl)phenyl]methyl]-4-hydroxy-4a-methyl-2-oxo-N-[4-(trifluoromethyl)-2-[6-(tri-fluoromethyl)pyridin-3-yl]phenyl]-6,7-dihydro-5H-pyrrolo[1,2-b]pyridazine-3-carboxamide]: the figures for the IC50 on human PiT-1, at human NaPi-IIb (read-out: IC50) and on human PiT-2 were 3.8 µM, 16.2 µM and 3.8 µM, respectively.
Regarding `C[C@]12CCCN1N(Cc1ccc(OCCN3CCOCC3)c(F)c1F)C(=O)C(C(=O)Nc1ccc(C(F)(F)F)cc1-c1cc(C(F)(F)F)ncn1)=C2O` [Example 157, (4aR)-1-[[2,3-Difluoro-4-(2-morpholin-4-ylethoxy)phenyl]methyl]-4-hydroxy-4a-methyl-2-oxo-N-[4-(trifluoromethyl)-2-[6-(trifluoromethyl)pyrimidin-4-yl]phenyl]-6,7-dihydro-5H-pyrrolo [1,2-b]pyridazine-3-carboxamide], the IC50 at human PiT-1 was 3.8 µM; at human NaPi-IIb (read-out: IC50), 19.1 µM; on human PiT-2, 3.9 µM.
For `COC[C@@H]1CCCN1CCOc1ccc(CN2C(=O)C(C(=O)Nc3ccc(C(F)(F)F)cc3-c3cc(C(F)(F)F)ncn3)=C(O)C3(CCC3)N2C)c(F)c1F` [Example 345, 6-[[2,3-Difluoro-4-[2-[(2S)-2-(methoxymethyl)pyrrolidin-1-yl]ethoxy]phenyl]methyl]-9-hydroxy-5-methyl-7-oxo-N-[4-(trifluoromethyl)-2-[6-(trifluoromethyl)pyrimidin-4-yl]phenyl]-5,6-diazaspiro[3.5]non-8-ene-8-carboxamide], the results for the IC50 on human PiT-1, at human NaPi-IIb (read-out: IC50) and on human PiT-2 were 1.2 µM, 7.7 µM and 1.4 µM, respectively.
Regarding `C[C@]12CCCN1N(Cc1ccc(CN3CCOCC3)c(F)c1F)C(=O)C(C(=O)Nc1ccc(C(F)(F)F)cc1-c1ccc(C(F)(F)F)nc1)=C2O` [Example 164, (4aR)-1-[[2,3-Difluoro-4-(morpholin-4-ylmethyl)phenyl]methyl]-4-hydroxy-4a-methyl-2-oxo-N-[4-(trifluoromethyl)-2-[6-(trifluoromethyl)pyridin-3-yl]phenyl]-6,7-dihydro-5H-pyrrolo [1,2-b]pyridazine-3-carboxamide; hydrochloride], the IC50 at human PiT-1 came out at 4.1 µM; on human NaPi-IIb (read-out: IC50), 5 µM; on human PiT-2 it was 4.1 µM.
Turning to `COCCN(C)CCOc1ccc(CN2C(=O)C(C(=O)Nc3ccc(C(F)(F)F)cc3-c3cc(C(F)(F)F)ncn3)=C(O)C3(CCC3)N2C)c(F)c1F` [Example 13, 6-[[2,3-Difluoro-4-[2-[2-methoxyethyl(methyl)amino]ethoxy]phenyl]methyl]-9-hydroxy-5-methyl-7-oxo-N-[4-(trifluoromethyl)-2-[6-(trifluoromethyl)pyrimidin-4-yl]phenyl]-5,6-diazaspiro[3.5]non-8-ene-8-carboxamide], the IC50 amounted to 1.9 µM on human PiT-1, 7.3 µM on human NaPi-IIb (read-out: IC50) and 2.7 µM on human PiT-2.
For `Cc1c(C#N)ncnc1-c1cc(C(F)(F)F)ccc1NC(=O)C1=C(O)[C@H](C(C)(C)C)N(C)N(Cc2ccc(OCCN3CCOCC3)c(F)c2F)C1=O` [Example 270, (3S)-3-tert-Butyl-N-[2-(6-cyano-5-methylpyrimidin-4-yl)-4-(trifluoromethyl)phenyl]-1-[[2,3-difluoro-4-(2-morpholin-4-yl-ethoxy)phenyl]methyl]-4-hydroxy-2-methyl-6-oxo-3H-pyridazine-5-carboxamide], the IC50 at human PiT-1 was 3.4 µM; at human NaPi-IIb (read-out: IC50), 14.6 µM; at human PiT-2, 3.6 µM.
Take `C[C@]12CCCN1N(Cc1cccc(Cl)c1F)C(=O)C(C(=O)Nc1cc(F)c(Br)c(F)c1)=C2O` [Example 196, (4aR)-N-(4-Bromo-3,5-difluorophenyl)-1-[(3-chloro-2-fluorophenyl)methyl]-4-hydroxy-4a-methyl-2-oxo-6,7-dihydro-5H-pyrrolo[1,2-b]pyridazine-3-carboxamide]: the results for the IC50 on human PiT-1, on human NaPi-IIb (read-out: IC50) and on human PiT-2 were 5.6 µM, 2.8 µM and 6.2 µM, respectively.
On to `COCCN(C)CCOc1ccc(CN2C(=O)C(C(=O)Nc3ccc(C(F)(F)F)cc3-c3ncnc(C(F)(F)F)c3C)=C(O)C3(CCCC3)N2C)c(F)c1F` [Example 416], for which the results for the IC50 on human PiT-1, at human NaPi-IIb (setting [1]) and at human PiT-2 were 0.9 µM, 5.8 µM and 1.4 µM, respectively.
